ChEMBL document CHEMBL5321216, “Discovery of bipyridine amide derivatives targeting pRXRα-PLK1 interaction for anticancer therapy” (Eur J Med Chem, 2023)
Activity calls are given as the source filed them. The rule behind the calls is not given here.

Columns and labels:
MDA-MB-231 [1] = assay: Antitumor activity against human MDA-MB-231 cells xenografted in BALB/c nude mouse assessed as tumor growth inhibition at 25 mg/kg/day, ip administered for 15 days and measured once a day relative to control; format: functional; conditions: MDA-MB-231, 360 h, time 15 day, read-out: TGI
HeLa [2] = assay: Inhibition of MYC tagged pRXRalpha-FLAG tagged PLK1 (unknown origin) protein-protein interaction transfected in human HeLa cells at 500 nM incubated for 3 hrs by co-immunoprecipitation assay; format: cell-based
[3] = Selectivity index, ratio of IC50 for human A549 cells to IC50 for human MDA-MB-231 cells; format: functional
[4] = Toxicity in BALB/c mouse xenografted with human MDA-MB-231 cells assessed as heart damage at 25 mg/kg/day, ip administered for 15 days by H and E staining based analysis; format: organism-based; conditions: in vivo, 360 h, time 15 day
[5] = target: T1, Retinoic acid receptor RXR-alpha (Homo sapiens) (UniProt P19793); assay: Antagonist activity at RXRalpha (unknown origin) transfected in human HeLa cells assessed as inhibition of CD3254- induced receptor transactivation incubated for 24 hrs by dual luciferase reporter assay; format: cell-based; conditions: filed as antagonist, dose 12.5-100 µM
T1 sequence (whole entry): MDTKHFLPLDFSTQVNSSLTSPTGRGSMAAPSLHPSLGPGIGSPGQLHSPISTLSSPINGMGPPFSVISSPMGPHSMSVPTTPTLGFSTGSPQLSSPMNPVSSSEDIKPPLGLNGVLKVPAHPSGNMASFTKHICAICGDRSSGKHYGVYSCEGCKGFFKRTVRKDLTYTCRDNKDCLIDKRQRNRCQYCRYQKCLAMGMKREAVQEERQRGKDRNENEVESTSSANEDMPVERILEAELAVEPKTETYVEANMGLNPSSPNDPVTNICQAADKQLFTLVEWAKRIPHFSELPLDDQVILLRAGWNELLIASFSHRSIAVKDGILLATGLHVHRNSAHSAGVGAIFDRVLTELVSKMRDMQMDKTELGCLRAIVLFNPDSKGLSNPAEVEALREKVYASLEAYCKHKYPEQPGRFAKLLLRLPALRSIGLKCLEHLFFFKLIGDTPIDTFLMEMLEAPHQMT

A549 [6] = assay: Induction of cell cycle arrest in human A549 cells assessed as accumulation of cells at G1 phase at 31.25 nM incubated for 12 hrs by flow cytometry analysis (reference value: 59.57%); format: functional
[7] = Tmax in Sprague-Dawley rat at 25 mg/kg, ip measured for 48 hrs by LC-MS/MS analysis; format: ADME, organism-based; conditions: in vivo
[8] = target: T2, Retinoic acid receptor RXR-alpha (Homo sapiens, UniProt P19793); assay: Binding affinity to RXRalpha LBD (unknown origin) assessed as increase in response unit by measuring dissociation constant by SPR analysis
T2 sequence (P19793 whole entry): T1 sequence (whole entry)

A549 [9] = assay: Induction of cell cycle arrest in human A549 cells assessed as accumulation of cells at G2 phase at 62.5 nM incubated for 12 hrs by flow cytometry analysis (reference value: 8.62%); format: functional
[10] = Toxicity in BALB/c mouse xenografted with human MDA-MB-231 cells assessed as reduction in body weight at 12.5 to 25 mg/kg/day, ip administered for 15 days; format: organism-based; conditions: in vivo, 360 h, dose 12.5-25 mg/kg/day, time 15 day
A549 [11] = assay: Induction of cell cycle arrest in human A549 cells assessed as accumulation of cells at G2 phase at 125 nM incubated for 12 hrs by flow cytometry analysis (reference value: 8.62%); format: functional
MDA-MB-231 [12] = assay: Induction of mitotic arrest in human MDA-MB-231 cells assessed as disordered spindle formation at 62.5 nM incubated for 12 hrs by alpha-tubulin/DAPI staining based confocal microscopic analysis; format: functional, cell-based
MDA-MB-231 [13] = assay: Induction of cell cycle arrest in human MDA-MB-231 cells assessed as accumulation of cells at G1 phase at 62.5 nM incubated for 12 hrs by flow cytometry analysis (reference value: 43.2%); format: functional
HeLa [14] = assay: Antiproliferative activity against human HeLa cells assessed as inhibition of cell proliferation incubated for 72 hrs by MTT assay; format: functional, cell-based
[15] = Cytotoxicity against human L02 cells assessed as inhibition of cell proliferation incubated for 72 hrs by MTT assay; format: toxicity, cell-based
[16] = Apparent volume of distribution during terminal phase in Sprague-Dawley rat at 25 mg/kg, ip measured for 48 hrs by LC-MS/MS analysis; format: ADME, organism-based; conditions: in vivo, read-out: Vz/F
MDA-MB-231 [17] = assay: Induction of apoptosis in human MDA-MB-231 cells assessed as live cells at 125 nM incubated for 24 hrs by annexin V-FITC/PI staining based flow cytometry analysis (reference value: 91.3%); format: functional
A549 [18] = assay: Induction of cell cycle arrest in human A549 cells assessed as accumulation of cells at G2 phase at 15.625 nM incubated for 12 hrs by flow cytometry analysis (reference value: 8.62%); format: functional; conditions: 0.01562 µM
MDA-MB-231 [19] = assay: Induction of cell cycle arrest in human MDA-MB-231 cells assessed as accumulation of cells at S phase at 15.625 nM incubated for 12 hrs by flow cytometry analysis (reference value: 40.89%); format: functional; conditions: 0.01562 µM
A549 [20] = assay: Induction of cell cycle arrest in RXRalpha knockout human A549 cells assessed as accumulation of cells at G1 phase at 125 nM incubated for 12 hrs by DAPI staining based flow cytometry analysis (reference value: 52.29 %); format: functional
MDA-MB-231 [21] = assay: Antiproliferative activity against human MDA-MB-231 cells assessed as cell viability rate at 5 uM incubated for 72 hrs by MTT assay relative to control; format: functional
MDA-MB-231 [22] = assay: Antitumor activity against human MDA-MB-231 cells xenografted in BALB/c nude mouse assessed as reduction in tumor volume at 25 mg/kg/day, ip administered for 15 days and measured once a day; format: functional, organism-based; conditions: time 15.0 day
[23] = target: T1, Retinoic acid receptor RXR-alpha (Homo sapiens); assay: Antagonist activity at RXRalpha (unknown origin) transfected in human HeLa cells assessed as inhibition of CD3254- induced receptor transactivation by measuring remaining luciferase activity at 1 uM incubated for 24 hrs by dual luciferase reporter assay; format: cell-based; conditions: filed as antagonist
MDA-MB-231 [24] = assay: Inhibition of colony formation in human MDA-MB-231 cells at 62.5 nM incubated for 48 hrs followed by replacement with normal culture medium and measured after […] by crystal violet staining based assay relative to control; format: functional
[25] = Cytotoxicity against HK-2 cells assessed as inhibition of cell proliferation incubated for 72 hrs by MTT assay; format: toxicity, cell-based; conditions: human
A549 [26] = assay: Induction of apoptosis in human A549 cells assessed as early apoptotic cells at 125 nM incubated for 24 hrs by annexin V-FITC/PI staining based flow cytometry analysis (reference value: 0.78%); format: functional
MDA-MB-231 [27] = assay: Induction of apoptosis in human MDA-MB-231 cells assessed as late apoptotic cells at 250 nM incubated for 24 hrs by annexin V-FITC/PI staining based flow cytometry analysis (reference value: 5.93%); format: functional
MDA-MB-231 [28] = assay: Antitumor activity against human MDA-MB-231 cells xenografted in BALB/c nude mouse assessed as reduction in RXRalpha protein expression at 25 mg/kg/day, ip administered for 15 days by immunohistochemical analysis; format: functional, organism-based; conditions: time 15.0 day

For `O=C(/C=C/c1ccccc1)Nc1cc(-c2ccnc(N3CCC(CO)CC3)c2)ccn1`, the inhibition in vivo at 25 mg/kg/day (MDA-MB-231 [1]) was 59.3%, the inhibition (HeLa [2]) was “Active” and the “Ratio IC50” value [3] was 12.56. The Activity [4] was “Non-Toxic”, the inhibition [5] was “Dose-Dependent Effect” and the Activity (A549 [6]) was 58.84%. For the same molecule, the Tmax [7] was 8.4 min, the Kd [8] was 39.4 nM and the Activity (A549 [9]) was 12.89%. For the same molecule, the Activity [10] was “Non-Toxic”, the Activity (A549 [11]) was 46.39% and the Activity (MDA-MB-231 [12]) was “Active”. The Activity (MDA-MB-231 [13]) was 1.81%, the IC50 (HeLa [14]) was 77 nM and the IC50 at 72 h [15] was 64 nM. For the same molecule, the Vd/F [16] was 5.15 L/kg, the Activity (MDA-MB-231 [17]) was 66.9% and the Activity (A549 [18]) was 8.95%. For the same molecule, the Activity (MDA-MB-231 [19]) was 41.47%, the Activity (A549 [20]) was 17.83% and the Activity (MDA-MB-231 [21]) was 31.72%. The Activity (MDA-MB-231 [22]) was “Active”, the inhibition [23] was “Active” and the inhibition at 0.0625 µM (MDA-MB-231 [24]) was 100%. The IC50 at 72 h [25] was 372 nM, the Activity (A549 [26]) was 22.9% and the Activity (MDA-MB-231 [27]) was 20.2%. For the same molecule, the Activity (MDA-MB-231 [28]) was “Active”.
